In patent US5242942A, “Anticonvulsant fructopyranose cyclic sulfites and sulfates” (McNeilab, Inc., priority 1992, dated 1993):

System: tonic extensor seizure
Experiment: maximal electroshock test (MES)
Format: in vivo, mouse (albino male CRS-CD1)
Conditions: mouse, PO, at 4 hr
Protocol: The compounds of formula (I) are particularly useful as anticonvulsant agents in mammals including humans. The anticonvulsant activity of the subject compounds was determined using a standard "maximal electroshock test" (MES). In this test, activity is indicated by a block of the […] extensor seizure caused by application of an electric shock to mice via corneal electrodes, as described by Swinyard et al. in J. Pharmacol. Expt. Ther. 1952, 106, 319, and recorded as % block. A more recent description of current anticonvulsant drug screening is given by Swinyard in Epilepsia 1978, 19, 409. The anticonvulsant activity of the compounds of this invention tested according to the Swinyard 1952 method is shown in the following Table I.
In the test, albino male CRS-CD1 mice weighing between 18-25 g were used in all experiments (obtained from Charles River). They were allowed food and water ad libitum and were used only once. The electroshock apparatus and the corneal electrodes were purchased from Wahlquist Instrument Company, Salt Lake City, Utah.
Maximal electroshock seizures were induced by the delivery of a 60 Hertz (Hz) current of 50 milliamps (mA) intensity to the mouse through corneal electrodes for 0.2 seconds as originally described by Swinyard et al. (1952). This stimulus intensity is approximately 4 to 6 times the current producing 100% tonic extensor convulsions. During the validation of the MES test, the duration of the various seizure components following maximal electroshock were measured as follows: hindleg tonic flexion was measured from the time of the application of the stimulus to the time of onset of hindleg tonic extension (i.e. when the hindlegs deviate by greater than an angle of 90° from the torso), hindleg tonic extensor was measured from the time of extensor thrust to the onset of generalized clonus, and terminal clonus was measured from the beginning to the end of bilateral rhythmic clonic jerking. Mortality was also recorded. The duration of each seizure component agreed well with the values previously reported by Tedeschi et al. in J. Pharmacol. Expt. Ther. 1955, 116, 107. The corneal electrodes were concave so that saline could be applied to the electrodes to reduce mortality. If this procedure is followed, mortality should always be less than 40% in control mice. Thus, at an electroshock stimulus of 60 Hz, 50 mA and 0.2 seconds duration, the order of convulsive components and the percentage of control animals displaying the behaviors should be as follows: tonic flexion (100%), tonic extension (100%) and clonus (100%) with less than 40% mortality.
For testing compounds, the abolition of the tonic extensor component was the endpoint. Animals were dosed orally (PO) with either vehicle or test drug and at a specified time were given a maximal electric shock through corneal electrodes blotted with saline (as described above). A minimum of 10 animals were used per group and the percentage of animals in the group without tonic hindlimb extension recorded. Determination of ED50 values (that dose of drug inhibiting 50% of the tonic extensor seizures) is shown below in Table I.

SMILES: CC1(C)O[C@H]2[C@@H]3OS(=O)(=O)O[C@@H]3CO[C@@]2(COS(N)(=O)=O)O1 [Example 1, 2,3-O-(1-Methylethylidene)-4,5-O-sulfonyl-β-D-fructopyranose Sulfamate]
- ED50: 6.3 mg/kg
